Measurements taken from PubChem BioAssay AID1963977 (Molecular Pharmacology Branch, DTP, NCI, 2024).
“And” between values parts separate entries of the source, which are not always exact repeats. Identical values can stand only once.

System: 624824-186-R-J3-PDC multicell spheroids, viability
Assay: Anticancer human tumor 624824-186-R-J3-PDC patient-derived colon adenocarcinoma cell line growth inhibition [PI3K]
Conditions: for viability, T/C: stronger effect = lower value
From the text: Combinatorial screen of targeted agents with the PI3K inhibitors inavolisib, alpelisib, duvelisib, and copanlisib in multi-cell type tumor spheroids
A high-throughput screen of multi-cell type tumor spheroids was designed to identify active combinations of targeted small molecules and PI3K pathway inhibitors. Complex spheroids include a stromal component modeled by human endothelial cells (HUVEC) and fibroblasts modeled by human mesenchymal stem cells (MSCs). The concentration ranges selected for each drug and investigational agent were based upon clinically achievable concentrations if the clinical Cmax of the agent was known.
Compounds. The drugs and investigational agents: inavolisib (NSC800729), alpelisib (NSC765974), duvelisib (NSC772469), copanlisib (NSC816437), ipatasertib (NSC767898), afuresertib (NSC778305), talazoparib (NSC767125), sapanisertib (NSC764658), selumetinib (NSC741078), tovorafenib (DAY101, NSC766906), vemurafenib (NSC761431), ravoxertinib (NSC781343), sotorasib (NSC818433), MRTX1133 (NSC 836407), abemaciclib (NSC 768073), palbociclib (NSC758247), venetoclax (NSC 766270), SY5609 (NSC837396), enzalutamide (NSC755605), and darolutamide (NSC825331), were obtained from the National Cancer Institute (NCI) Developmental Therapeutics Program Chemical Repository. The FDA-approved anticancer drug set is available from the NCI Developmental Therapeutics Program. […] The stock solutions were prepared in dimethyl sulfoxide (DMSO, Sigma-Aldrich, St. Louis, MO, cat. D2650) at 800-fold the tested concentration and stored at -70 degrees C prior to their use. All drugs and investigational agents were tested over a range starting from a high concentration at or near the clinical Cmax and decreasing in half-log increments. If the clinical Cmax for an agent had not been determined, the highest concentration tested was 10 microM.
Cell Culture. All cells were maintained in an incubator at 37 degrees C and 5% CO2 with 95% humidity. The PDC lines were cultured according to standard operating procedures established by the NCI PDMR (https://pdmr.cancer.gov/sops/default.htm). All PDCs were thawed and cultured in Matrigel-coated flasks prepared with a working solution of 1X Ham's F-12 nutrient mix, without supplementation (Invitrogen, Waltham, MA, cat. 11765054), 100 U/mL penicillin-streptomycin (Invitrogen, cat. 15140122), and 2.5% Matrigel (Corning Inc., Corning, NY, cat. 354248) for the first three passages. The 354836-022-R-J1-PDC, 475296-252-R-J1-PDC, and 997726-040-R-J2-PDC lines were cultured in 6A media, which includes advanced DMEM/F-12 (Thermo Fisher Scientific, cat. 12634028), 10 mM HEPES (Thermo Fisher Scientific, cat. 15630080), 1X GlutaMAX supplement (Thermo Fisher Scientific, cat. 35050061), 0.1 mg/mL primocin (InvivoGen, San Diego, CA, cat. ant-pm-2), 10% defined fetal bovine serum, heat inactivated (HyClone Laboratories Inc., Logan, UT, cat. SH30070.03HI), 50% L-WRN conditioned media (ATCC, cat. CRL-3276), 1.25 mM N-Acetyl-L-cysteine (Sigma-Aldrich, cat. A9165), 10 mM nicotinamide (Sigma-Aldrich, cat. N0636), 1X B-27 supplement (Thermo Fisher Scientific, cat. 17504044), 1X N-2 supplement (Thermo Fisher Scientific, cat. 17502048), and 10 microM Y-27632 dihydrochloride (Tocris Bioscience, Bristol, United Kingdom, cat. 1254). The 624824-186-R-J2-PDC line was cultured in 6C/Colon 1B media, which includes all 6A media components plus 50 ng/mL human EGF recombinant protein (Thermo Fisher Scientific, cat. PHG0311). […]
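Also: spheroids exposed to agents for seven days before luminescence read.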
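For viability, T/C in this document: luminescent signal used as a stand-in for spheroid viability; percent viability relative to DMSO vehicle control wells taken as 100%.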

Row | SMILES | IC50 (curve of compound) | IC50 (compound alone, run of 04/25/2023) | IC50 (compound alone, run of 04/24/2023) | viability, T/C (compound 0.0316 µM) | viability, T/C (compound 0.1 µM) | viability, T/C (compound 0.316 µM) | viability, T/C (compound 1 µM) | viability, T/C (compound 3.16 µM) | viability, T/C (compound 10 µM) | viability, T/C (compound 0.00316 µM) | viability, T/C (compound 0.01 µM) | viability, T/C (compound 0.00949 µM) | viability, T/C (compound 0.03 µM) | viability, T/C (compound 0.0949 µM) | viability, T/C (compound 0.3 µM) | viability, T/C (compound 0.949 µM) | viability, T/C (compound 3 µM) | viability, T/C (compound 0.000316 µM) | viability, T/C (compound 0.001 µM)
1 | CCCS(=O)(=O)Nc1ccc(F)c(C(=O)c2c[nH]c3ncc(-c4ccc(Cl)cc4)cc23)c1F | 5.47 µM [middle of 4 runs] | – | – | 99.1% [middle of 4 runs] | 97.5% [middle of 4 runs] | 102% [middle of 4 runs] | 95.5% [middle of 4 runs] | 86% [middle of 4 runs] | 11.9% [middle of 4 runs] | – | – | – | – | – | – | – | – | – | –
2 | CCN1CCN(Cc2ccc(Nc3ncc(F)c(-c4cc(F)c5nc(C)n(C(C)C)c5c4)n3)nc2)CC1 | > 1000 nM | – | – | 112% (2×) and 105% and 115% | 107% [middle of 4 runs] | 104% [middle of 4 runs] | 104% [middle of 4 runs] | – | – | 108% (2×) and 105% and 107% | 106% [middle of 4 runs] | – | – | – | – | – | – | – | –
3 | COc1c(OCCCN2CCOCC2)ccc2c3n(c(=NC(=O)c4cnc(N)nc4)nc12)CCN3 | – | 380 nM [middle of 8 runs] | – | 102% [middle of 8 runs] | 85.9% [middle of 8 runs] | 54.4% [middle of 8 runs] | 31.7% [middle of 8 runs] | – | – | 102% [middle of 8 runs] | 104% [middle of 8 runs] | – | – | – | – | – | – | – | –
4 | C[C@@H](NC(=O)c1ncnc(N)c1Cl)c1ncc(C(=O)Nc2cc(C(F)(F)F)c(Cl)cn2)s1 | > 10000 nM | – | – | 103% and 100% and 120% | 96.1% and 93.2% (2×) | 99.7% and 104% and 102% | 99.9% and 97.9% and 107% | 94.9% and 98.1% and 99.8% | 89.5% and 97.3% and 104% | – | – | – | – | – | – | – | – | – | –
5 | Cc1nc(NC(=O)N2CCCC2C(N)=O)sc1-c1ccnc(C(C)(C)C(F)(F)F)c1 (configuration not stated) | – | – | > 10000 nM | 102% [middle of 8 runs] | 108% [middle of 8 runs] | 109% [middle of 8 runs] | 107% [middle of 8 runs] | 94% [middle of 8 runs] | 72.8% [middle of 8 runs] | – | – | – | – | – | – | – | – | – | –
6 | Cn1ncnc1[C@H]1c2n[nH]c(=O)c3cc(F)cc(c23)N[C@@H]1c1ccc(F)cc1 | > 100 nM | – | – | 103% (2×) and 93.2% and 95.4% | 98.4% [middle of 4 runs] | – | – | – | – | – | 99.7% [middle of 4 runs] | – | – | – | – | – | – | 110% [middle of 4 runs] | 100% [middle of 4 runs]

Now from value to compound, other results behind:

Row | IC50 (curve of compound) | IC50 (compound alone, run of 04/25/2023) | IC50 (compound alone, run of 04/24/2023) | SMILES | viability, T/C (compound 0.0316 µM) | viability, T/C (compound 0.1 µM) | viability, T/C (compound 0.316 µM) | viability, T/C (compound 1 µM) | viability, T/C (compound 3.16 µM) | viability, T/C (compound 10 µM) | viability, T/C (compound 0.00316 µM) | viability, T/C (compound 0.01 µM) | viability, T/C (compound 0.00949 µM) | viability, T/C (compound 0.03 µM) | viability, T/C (compound 0.0949 µM) | viability, T/C (compound 0.3 µM) | viability, T/C (compound 0.949 µM) | viability, T/C (compound 3 µM) | viability, T/C (compound 0.000316 µM) | viability, T/C (compound 0.001 µM)
7 | > 10000 nM | – | – | CNC(=O)c1ccc(N2C(=S)N(c3ccc(C#N)c(C(F)(F)F)c3)C(=O)C2(C)C)cc1F | 103% [middle of 4 runs] | 102% [middle of 4 runs] | 107% [middle of 4 runs] | 104% [middle of 4 runs] | 106% [middle of 4 runs] | 104% [middle of 4 runs] | – | – | – | – | – | – | – | – | – | –
8 | 2050 nM and 1780 nM and 2370 nM | – | – | Cn1cnc2c(F)c(Nc3ccc(Br)cc3Cl)c(C(=O)NOCCO)cc21 | – | – | – | – | – | – | – | – | 97.1% and 99.4% and 96.4% | 87.8% and 93.3% and 90.5% | 89.1% and 88.9% and 83.9% | 88.5% and 82.7% and 75.8% | 67.2% and 63.3% and 74.6% | 41.4% and 38.2% and 43.1% | – | –
9 | > 10000 nM | – | – | Cn1nccc1Nc1nccc(-c2ccn(C(CO)c3ccc(Cl)c(F)c3)c(=O)c2)n1 (configuration not stated) | 102% [middle of 4 runs] | 95.1% [middle of 4 runs] | 95.9% [middle of 4 runs] | 80.8% [middle of 4 runs] | 69.3% [middle of 4 runs] | 60.9% [middle of 4 runs] | – | – | – | – | – | – | – | – | – | –
